The values below come from PubChem BioAssay (NCI).

Where “and” joins values, the source holds several entries; their conditions need not be identical. Identical values can stand only once.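 Assay format: 96-well plates, 48-hour exposure. The concentration for 50% growth inhibition is given as GI50. TGI marks complete inhibition of growth.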 Some results are limits rather than exact numbers.

Among the test systems are SK-MEL-5 melanoma; HCT-15 colon; NCI/ADR-RES ovarian; SK-MEL-28 melanoma; NCI-H460 lung; HCC-2998 colon; M14 melanoma; COLO 205 colon; A549 NSCLC; NCI-H522 lung.
Test in all cases: NCI anticancer screen, dose series, 48 h

Turning to `CCCCn1c2c(n(CCCC)c1=S)-c1c(n(CCCC)c(=S)n1CCCC)SSc1c(n(CCCC)c(=S)n1CCCC)-c1c(n(CCCC)c(=S)n1CCCC)SSc1c(n(CCCC)c(=S)n1CCCC)-c1c(n(CCCC)c(=S)n1CCCC)SS2`, the TGI was greater than 36.6 µM in the experiment with SK-MEL-5 melanoma; 30.4 µM with HCT-15 colon; greater than 50 µM in the experiment with NCI/ADR-RES ovarian; greater than 50 µM with SK-MEL-28 melanoma; greater than 50 µM with NCI-H460 lung; greater than 50 µM with HCC-2998 colon. The TGI was greater than 50 µM in the experiment on M14 melanoma, 14.7 µM with COLO 205 colon, greater than 50 µM with A549 NSCLC and 1.86 µM in the experiment with NCI-H522 lung.

On to `Cc1ccc(NC(=O)c2cc(S(=O)(=O)Nc3nc4ncccc4[nH]3)c(SSc3cc(Cl)c(C(=O)Nc4ccc(C)cc4)cc3S(=O)(=O)Nc3nc4ncccc4[nH]3)cc2Cl)cc1`, for which the TGI in the experiment with SK-MEL-5 melanoma, in the experiment with HCT-15 colon, in the experiment with NCI/ADR-RES ovarian, with SK-MEL-28 melanoma, in the experiment on NCI-H460 lung and in the experiment on HCC-2998 colon was greater than 100 µM throughout. The TGI with M14 melanoma, in the experiment on COLO 205 colon, in the experiment with A549 NSCLC and in the experiment on NCI-H522 lung was greater than 100 µM throughout.

Turning to `COc1cc(/C=C/C(=O)C2(C(=O)/C=C/c3cc(OC)c(OC)c(OC)c3)CCCCC2)cc(OC)c1OC`, the TGI in the experiment with SK-MEL-5 melanoma, with HCT-15 colon, in the experiment with NCI/ADR-RES ovarian, in the experiment with SK-MEL-28 melanoma, in the experiment on NCI-H460 lung and in the experiment with HCC-2998 colon was greater than 100 µM each time. The TGI in the experiment on M14 melanoma is 81.7 µM; with COLO 205 colon, greater than 100 µM; with A549 NSCLC, greater than 100 µM; with NCI-H522 lung, 96.9 µM.

On to `CCOC(=O)NC(Nc1ccc(C(=O)OCC)cc1)(C(F)(F)F)C(F)(F)F`, for which the TGI with SK-MEL-5 melanoma, in the experiment on HCT-15 colon, in the experiment on NCI/ADR-RES ovarian, in the experiment with SK-MEL-28 melanoma, in the experiment on NCI-H460 lung and with HCC-2998 colon was greater than 100 µM each time. The TGI in the experiment on M14 melanoma, in the experiment on COLO 205 colon, in the experiment with A549 NSCLC and with NCI-H522 lung was greater than 100 µM in each case.

For the compound `CC(=O)OCC1OC(n2c(-c3ccc(C)cc3)cc(-c3ccccc3)c(C#N)c2=S)C(OC(C)=O)C(OC(C)=O)C1OC(C)=O` (stereo not drawn), the TGI with SK-MEL-5 melanoma, in the experiment with HCT-15 colon, in the experiment on NCI/ADR-RES ovarian, in the experiment with SK-MEL-28 melanoma, with NCI-H460 lung and in the experiment with HCC-2998 colon was greater than 100 µM each time. Also, the TGI in the experiment with M14 melanoma, in the experiment on COLO 205 colon, in the experiment with A549 NSCLC and in the experiment with NCI-H522 lung was greater than 100 µM each time.

For the compound `N#Cc1c(N)nc(Sc2ccccc2N)c(C#N)c1-c1ccc(Cl)cc1`, the TGI was greater than 55 µM with SK-MEL-5 melanoma; 54.7 µM in the experiment with HCT-15 colon; 35.5 µM in the experiment on NCI/ADR-RES ovarian; greater than 100 µM in the experiment on SK-MEL-28 melanoma; 58.6 µM in the experiment on NCI-H460 lung; 36 µM in the experiment on HCC-2998 colon. For the same compound, the TGI was 38.5 µM with M14 melanoma, greater than 100 µM in the experiment with COLO 205 colon, greater than 75.2 µM in the experiment on A549 NSCLC and 35.8 µM in the experiment with NCI-H522 lung.

Turning to `CCCCCCCCCCCCC(O)[C@H]1CC[C@H](C(O)CCCCCC(=O)CCCCC2CC(C(C)=O)C(=O)O2)O1` (stereo partly drawn), the GI50 in the experiment with SK-MEL-5 melanoma was 1.11 µM; with HCT-15 colon, 6.51 µM; with NCI/ADR-RES ovarian it was 1.87 µM; with SK-MEL-28 melanoma it was 4.06 µM; in the experiment on NCI-H460 lung, 9.67 µM; in the experiment with M14 melanoma, 6.01 µM. In addition, the GI50 was 2.16 µM in the experiment with COLO 205 colon and 2.33 µM in the experiment with A549 NSCLC. Besides, the TGI in the experiment with SK-MEL-5 melanoma is 4.97 µM and 20.4 µM; in the experiment with HCT-15 colon, greater than 70.9 µM; with NCI/ADR-RES ovarian, 40.4 µM; in the experiment on SK-MEL-28 melanoma, 66.2 µM; in the experiment with NCI-H460 lung it was 22.5 µM; in the experiment on HCC-2998 colon it was 32.1 µM. The TGI was 26.2 µM with M14 melanoma, greater than 57.8 µM with COLO 205 colon, greater than 100 µM in the experiment with A549 NSCLC and 25.6 µM in the experiment with NCI-H522 lung.

As for `O=C1c2ccccc2C(=O)N1CC(O)COc1cccc2ccccc12` (stereo not drawn), the TGI in the experiment with SK-MEL-5 melanoma, in the experiment on HCT-15 colon, in the experiment with NCI/ADR-RES ovarian, in the experiment on SK-MEL-28 melanoma, in the experiment with NCI-H460 lung and in the experiment with HCC-2998 colon was greater than 100 µM throughout. Also, the TGI in the experiment on M14 melanoma, with COLO 205 colon, with A549 NSCLC and with NCI-H522 lung was greater than 100 µM in each case.

Turning to `CC(=O)Nc1ccc(C2SCc3nc4ccccc4n32)cc1` (stereo not drawn), the TGI in the experiment on SK-MEL-5 melanoma, in the experiment with HCT-15 colon, in the experiment on NCI/ADR-RES ovarian, in the experiment on SK-MEL-28 melanoma, in the experiment on NCI-H460 lung and in the experiment on HCC-2998 colon was greater than 100 µM in each case. Moreover, the TGI in the experiment on M14 melanoma, in the experiment on COLO 205 colon, with A549 NSCLC and in the experiment on NCI-H522 lung was greater than 100 µM each time.

With `O=C(NNC(=S)NC1CCCCC1)c1csc(NC(=S)NC2CCCCC2)n1`, the TGI came to 8.79 µM in the experiment on SK-MEL-5 melanoma; 14.5 µM in the experiment with HCT-15 colon; 13.3 µM with NCI/ADR-RES ovarian; 14.5 µM in the experiment on HCC-2998 colon; 16.1 µM in the experiment on M14 melanoma; 14.1 µM in the experiment with COLO 205 colon. The TGI in the experiment on A549 NSCLC amounted to 23.3 µM; in the experiment with NCI-H522 lung, 28.2 µM.

In the case of `Cc1ccc(S(=O)(=O)N2CCCSCC2)cc1`, the TGI in the experiment with SK-MEL-5 melanoma, in the experiment with HCT-15 colon, in the experiment with NCI/ADR-RES ovarian, in the experiment with SK-MEL-28 melanoma, in the experiment with NCI-H460 lung and with HCC-2998 colon was greater than 100 µM in each case. Further, the TGI in the experiment on COLO 205 colon, in the experiment with A549 NSCLC and in the experiment with NCI-H522 lung was greater than 100 µM each time.

For the compound `CN(C)c1nc(Cl)c2c(-c3ccccc3)c(-c3ccccc3)oc2n1`, the TGI in the experiment on SK-MEL-5 melanoma, with HCT-15 colon, in the experiment with NCI/ADR-RES ovarian, in the experiment on SK-MEL-28 melanoma, with HCC-2998 colon and with M14 melanoma was greater than 100 µM throughout. Besides, the TGI in the experiment with COLO 205 colon is greater than 100 µM; in the experiment on A549 NSCLC it was greater than 100 µM; in the experiment on NCI-H522 lung it was 78.7 µM.

`Cc1cc(=O)oc2c(CNC(Cc3ccccc3)C(=O)O)c(O)ccc12` (stereo not drawn): the TGI with SK-MEL-5 melanoma, in the experiment on HCT-15 colon, in the experiment on NCI/ADR-RES ovarian, in the experiment on SK-MEL-28 melanoma, in the experiment on NCI-H460 lung and with HCC-2998 colon was greater than 100 µM in each case. Further, the TGI in the experiment on M14 melanoma, in the experiment with COLO 205 colon, in the experiment on A549 NSCLC and in the experiment on NCI-H522 lung was greater than 100 µM each time.

Take `CCOC(=O)c1ccc(N=c2sc3ccccc3nc2Nc2ccc(C(=O)OCC)cc2)cc1`: the TGI with SK-MEL-5 melanoma, in the experiment with HCT-15 colon, in the experiment with NCI/ADR-RES ovarian, with SK-MEL-28 melanoma, in the experiment on NCI-H460 lung and in the experiment with HCC-2998 colon was greater than 100 µM throughout. Moreover, the figures for the TGI in the experiment on COLO 205 colon, with A549 NSCLC and in the experiment on NCI-H522 lung were greater than 100 µM, greater than 100 µM and 77.6 µM, respectively.

`CC1(C)CCC[C@]2(C)[C@H]3[C@H](C#N)c4cc(O)c(O)cc4O[C@@]3(C)CC[C@@H]12`: the TGI in the experiment with SK-MEL-5 melanoma, in the experiment with HCT-15 colon, in the experiment with NCI/ADR-RES ovarian, in the experiment on SK-MEL-28 melanoma, in the experiment on NCI-H460 lung and in the experiment with HCC-2998 colon was greater than 10 µM each time. In addition, the TGI with M14 melanoma, with COLO 205 colon and with NCI-H522 lung was greater than 10 µM each time.

As for `O=C(Nc1nc(C23CC4CC(CC(C4)C2)C3)cs1)c1cc2ccccc2oc1=O`, the TGI with SK-MEL-5 melanoma, in the experiment on HCT-15 colon, with NCI/ADR-RES ovarian, with SK-MEL-28 melanoma, in the experiment with NCI-H460 lung and in the experiment with HCC-2998 colon was greater than 100 µM throughout. Also, the TGI with COLO 205 colon, in the experiment on A549 NSCLC and in the experiment with NCI-H522 lung was greater than 100 µM each time.

For the compound `NC(N)=Nc1ccc(CC(N)C(=O)O)cc1` (stereo not drawn), the TGI in the experiment with SK-MEL-5 melanoma, in the experiment with HCT-15 colon, in the experiment on NCI/ADR-RES ovarian, in the experiment with SK-MEL-28 melanoma, in the experiment on HCC-2998 colon and in the experiment on M14 melanoma was greater than 12.5 µM each time. In addition, the TGI in the experiment on COLO 205 colon, in the experiment with A549 NSCLC and with NCI-H522 lung was greater than 12.5 µM in each case.

With `Cc1ccc(S(=O)(=O)NNCNC(=O)c2ccccc2)cc1`, the TGI in the experiment on SK-MEL-5 melanoma, in the experiment on HCT-15 colon, in the experiment with NCI/ADR-RES ovarian, with SK-MEL-28 melanoma, with HCC-2998 colon and with M14 melanoma was greater than 100 µM in each case. Moreover, the TGI with COLO 205 colon, with A549 NSCLC and in the experiment on NCI-H522 lung was greater than 100 µM in each case.

Regarding `O=C1CC(c2ccccc2)n2cccc21` (stereo not drawn), the TGI in the experiment with SK-MEL-5 melanoma, with HCT-15 colon, with NCI/ADR-RES ovarian, with SK-MEL-28 melanoma, in the experiment with HCC-2998 colon and in the experiment on M14 melanoma was greater than 100 µM throughout. Moreover, the TGI in the experiment on COLO 205 colon, in the experiment with A549 NSCLC and in the experiment with NCI-H522 lung was greater than 100 µM each time.
